Data taken from patent EP4744682A1, “NOVEL CERIUM OXIDE NANOCOMPOSITE WITH ENHANCED BIOSTABILITY AND USE THEREOF” (Cenyx Biotech Inc., priority 2023, dated 2025).

Test system: Hepa-1C1C7 hepatocyte cells
Test: Survival of pyrogallol-treated hepatocytes, NRU assay
Format: cell-based
Conditions: 500µM pyrogallol alone; 3 hours; compared to pyrogallol-untreated control
Experimental: Inflammatory liver disease is a condition where the liver cannot perform its normal functions due to liver damage, metabolic disorders, and accumulation of toxic substances. The present inventors sought to verify the therapeutic effect of the cerium oxide nanocomplex of the present invention on inflammatory liver disease. To induce the disease, Hepa-1C1C7 hepatocyte cells were treated with 500µM pyrogallol, a cytotoxic substance, to induce acute inflammatory liver disease. Simultaneously, the cells were treated with the cerium oxide nanocomplex of the present invention at concentrations ranging from 0.01 to 5µM. Three hours after treatment, the survival rate of Hepa-lclc7 cells was measured using the NRU assay, a biochemical analysis method that measures cell survival by allowing the neutral red dye to be absorbed by living cells. […] When treated with the cerium oxide nanocomplex of the present invention, survival rates of 74.55% at a minimum concentration of 0.01 µM and approximately 93.19% at a maximum concentration of 5µM were observed. This represents an increase in survival rate of at least 47.81% to a maximum of 84.78% compared to cells treated with pyrogallol alone (FIG. 13).

Oc1cccc(O)c1O [pyrogallol]
survival rate of cells: approximately 50.43%
